Several values for one entry are separate records, joined by “and”; a condition that tells them apart may be missing. Equal entries are not always repeated. Toxic doses and inconclusive results are not listed.
Tested on: P388 leukemia ip, CD2F1 mice, survival T/C
Experiment: NCI In Vivo Anticancer Drug Screen. Data for tumor model P388 Leukemia (intraperitoneal) in CD2F1 (CDF1) mice
Conditions: endpoint: median survival time, higher = longer survival
In short: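 Mice carrying the transplanted tumor received test compound or vehicle. Survival was recorded in each group, and the value is the treated-group measurement divided by that of the vehicle-treated control group.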

[1] = dose: 6.25 mg/kg/injection, schedule: Q01DX009 (ip), vehicle: saline
[2] = dose: 12.5 mg/kg/injection, schedule: Q01DX009 (ip), vehicle: saline
[3] = dose: 25.0 mg/kg/injection, schedule: Q01DX009 (ip), vehicle: saline
[4] = dose: 50.0 mg/kg/injection, schedule: Q01DX009 (ip), vehicle: Klucel (hydroxypropylcellulose) (HPC)
[5] = dose: 100.0 mg/kg/injection, schedule: Q01DX009 (ip), vehicle: Klucel (hydroxypropylcellulose) (HPC)
[6] = dose: 200.0 mg/kg/injection, schedule: Q01DX009 (ip), vehicle: Klucel (hydroxypropylcellulose) (HPC)
[7] = dose: 50.0 mg/kg/injection, schedule: Q01DX005 (ip), vehicle: saline with Tween-80
[8] = dose: 100.0 mg/kg/injection, schedule: Q01DX005 (ip), vehicle: saline with Tween-80
[9] = dose: 200.0 mg/kg/injection, schedule: Q01DX005 (ip), vehicle: saline with Tween-80
[10] = dose: 50.0 mg/kg/injection, schedule: Q01DX009 (ip), vehicle: saline
[11] = dose: 50.0 mg/kg/injection, schedule: Q01DX009 (ip), vehicle: saline with Tween-80
[12] = dose: 100.0 mg/kg/injection, schedule: Q01DX009 (ip), vehicle: saline with Tween-80
[13] = dose: 200.0 mg/kg/injection, schedule: Q01DX009 (ip), vehicle: saline with Tween-80
[14] = dose: 25.0 mg/kg/injection, schedule: Q01DX009 (ip), vehicle: saline with Tween-80
[15] = dose: 100.0 mg/kg/injection, schedule: Q01DX009 (ip), vehicle: saline

COc1ccc(C2=C(C#N)C(=C(C#N)C#N)NC(N)=C2C#N)cc1
T/C (dose: 60.0 mg/kg/injection, schedule: Q01DX005 (ip), vehicle: Klucel (hydroxypropylcellulose) (HPC)): 105 % of control
T/C (dose: 120.0 mg/kg/injection, schedule: Q01DX005 (ip), vehicle: Klucel (hydroxypropylcellulose) (HPC)): 91 % of control

CCCCC(CC)COP(=O)(CC(CC)CCCC)OCC(CC)CCCC (stereo unspecified)
T/C [1]: 109 % of control
T/C [2]: 109 % of control
T/C [3]: 109 % of control
T/C (dose: 25.0 mg/kg/injection, schedule: Q04DX003 (ip), vehicle: saline): 100 % of control
T/C (dose: 50.0 mg/kg/injection, schedule: Q04DX003 (ip), vehicle: saline): 100 % of control
T/C (dose: 100.0 mg/kg/injection, schedule: Q04DX003 (ip), vehicle: saline): 113 % of control

CCO/C=C1/N=C(c2ccccc2Cl)OC1=O
T/C (dose: 60.0 mg/kg/injection, schedule: Q01DX005 (ip), vehicle: saline with Tween-80): 106 % of control
T/C (dose: 120.0 mg/kg/injection, schedule: Q01DX005 (ip), vehicle: saline with Tween-80): 118 % of control
T/C (dose: 240.0 mg/kg/injection, schedule: Q01DX005 (ip), vehicle: saline with Tween-80): 98 % of control

Cc1ccccc1C1=NC2(CCCCC2)N=C1NN
T/C [4]: 104 % of control
T/C [5]: 98 % of control
T/C [6]: 91 % of control

O=C(C1CCCCC1)C1CCCCC1CC1CCCCC1 (stereo unspecified)
T/C [7]: 102 % of control
T/C [8]: 107 % of control
T/C [9]: 107 % of control

COCC(CN1CCN(c2ccccc2OC)CC1)OC (stereo unspecified)
T/C [2]: 97 % of control
T/C [3]: 98 % of control
T/C [10]: 90 % of control

CCCCC/C=C/CCCCCCC1C=CCC1 (stereo unspecified)
T/C (dose: 100.0 mg/kg/injection, schedule: Q01DX001 (ip), vehicle: saline): 101 % of control
T/C (dose: 200.0 mg/kg/injection, schedule: Q01DX001 (ip), vehicle: saline): 100 % of control
T/C (dose: 400.0 mg/kg/injection, schedule: Q01DX001 (ip), vehicle: saline): 100 % of control

CC(CN=C(CC(=O)c1ccccc1)c1ccccc1)N=C(CC(=O)c1ccccc1)c1ccccc1.[Cu] (stereo unspecified)
T/C [11]: 100 % of control
T/C [12]: 106 % of control
T/C [13]: 91 % of control

O=C1N/C(=N/O)CC(NO)N1 (stereo unspecified)
T/C (dose: 100.0 mg/kg/injection, schedule: Q04DX002 (ip), vehicle: Klucel (hydroxypropylcellulose) (HPC)): 97 % of control
T/C (dose: 200.0 mg/kg/injection, schedule: Q04DX002 (ip), vehicle: Klucel (hydroxypropylcellulose) (HPC)): 100 % of control
T/C (dose: 400.0 mg/kg/injection, schedule: Q04DX002 (ip), vehicle: Klucel (hydroxypropylcellulose) (HPC)): 102 % of control

O=S(=O)(c1cnccc1N1CCN(CCCl)CC1)N1CCCCC1
T/C [1]: 98 % of control and 100 % of control
T/C [2]: 100 % of control and 104 % of control and 105 % of control
T/C [3]: 100 % of control and 108 % of control and 109 % of control

Cc1cs/c(=N/N=C2C=CC(=O)C=C2)n1O
T/C [4]: 102 % of control
T/C [5]: 107 % of control
T/C [6]: 101 % of control

CCOc1ccc(/C=C/S(=O)(=O)/C=C\c2ccccc2)c(OC)c1
T/C [7]: 98 % of control
T/C [8]: 92 % of control
T/C [9]: 87 % of control

CN(C)CC(CN(C)C)C(=O)c1ccc(Oc2ccc(Cl)c(Cl)c2)cc1
T/C (dose: 1.88 mg/kg/injection, schedule: Q01DX005 (ip), vehicle: saline): 107 % of control
T/C (dose: 3.75 mg/kg/injection, schedule: Q01DX005 (ip), vehicle: saline): 109 % of control
T/C (dose: 7.5 mg/kg/injection, schedule: Q01DX005 (ip), vehicle: saline): 117 % of control

CCN(CCO)CCNc1ccc(CO)c2sc3cc(Cl)ccc3c(=O)c12
T/C (dose: 88.0 mg/kg/injection, schedule: Q01DX009 (ip), vehicle: saline with Tween-80): 105 % of control
T/C (dose: 133.0 mg/kg/injection, schedule: Q01DX009 (ip), vehicle: saline with Tween-80): 113 % of control
T/C [13]: 112 % of control
T/C (dose: 300.0 mg/kg/injection, schedule: Q01DX009 (ip), vehicle: saline with Tween-80): 102 % of control

CC(=O)O[C@H]1C(=O)[C@]2(C)[C@@H](OC(C)=O)CC3OC[C@@]3(OC(C)=O)[C@H]2[C@H](OC(=O)c2ccccc2)[C@]2(O)C[C@H](OC(=O)[C@H](O)[C@@H](NC(=O)c3ccccc3)c3ccccc3)C(C)=C1C2(C)C (stereo partly specified)
T/C (dose: 2.5 mg/kg/injection, schedule: Q01DX005 (ip), vehicle: DMSO): 100 % of control
T/C (dose: 5.0 mg/kg/injection, schedule: Q01DX005 (ip), vehicle: DMSO): 111 % of control

O=C1CCCCCCCCCCC1Br (stereo unspecified)
T/C [12]: 100 % of control
T/C [13]: 99 % of control
T/C (dose: 400.0 mg/kg/injection, schedule: Q01DX009 (ip), vehicle: saline with Tween-80): 105 % of control

COc1c(C(C)C)cc2c(c1OC)C13CCCC(C)(C)C1C(OC3=O)C2NC(=O)C(C)N(C)C (stereo unspecified)
T/C [2]: 100 % of control
T/C [3]: 98 % of control
T/C [10]: 100 % of control

CC1(C)OC2OC3C(O)C(=O)OC3C2O1 (stereo unspecified)
T/C (dose: 60.0 mg/kg/injection, schedule: Q01DX005 (ip), vehicle: saline): 107 % of control
T/C (dose: 120.0 mg/kg/injection, schedule: Q01DX005 (ip), vehicle: saline): 97 % of control
T/C (dose: 240.0 mg/kg/injection, schedule: Q01DX005 (ip), vehicle: saline): 99 % of control

CN(C)c1nc(N)nc2c1nc(Cl)n2C1OC(CO)C(O)C1O (stereo unspecified)
T/C [7]: 99 % of control
T/C [8]: 100 % of control
T/C [9]: 100 % of control

CC(C)(C)N(OC(=O)c1ccc(Cl)cc1)c1ccccc1
T/C [14]: 99 % of control
T/C [11]: 99 % of control

CC(=NCC(=O)O)c1ccccc1
T/C [3]: 104 % of control
T/C [10]: 111 % of control
T/C [15]: 109 % of control

C1CN(P2(N3CC3)=NP(N3CC3)(N3CC3)=NP(N3CC3)(N3CC3)=N2)CCO1 (stereo unspecified)
T/C (dose: 3.13 mg/kg/injection, schedule: Q01DX009 (ip), vehicle: saline): 123 % of control
T/C (dose: 4.0 mg/kg/injection, schedule: Q01DX009 (ip), vehicle: saline): 161 % of control
T/C [1]: 157 % of control
T/C (dose: 8.0 mg/kg/injection, schedule: Q01DX009 (ip), vehicle: saline): 212 % of control
T/C [2]: 183 % of control
T/C (dose: 16.0 mg/kg/injection, schedule: Q01DX009 (ip), vehicle: saline): 174 % of control
T/C [3]: 215 % of control
T/C (dose: 32.0 mg/kg/injection, schedule: Q01DX009 (ip), vehicle: saline): 235 % of control
T/C [10]: 104 % of control
T/C (dose: 64.0 mg/kg/injection, schedule: Q01DX009 (ip), vehicle: saline): 108 % of control
T/C [15]: 86 % of control

CC(=O)c1c(O)cc(C)n(Cc2ccccc2)c1=O
T/C [7]: 99 % of control
T/C [8]: 100 % of control
T/C [9]: 99 % of control

C[S+](C)CCCl
T/C (dose: 50.0 mg/kg/injection, schedule: Q01DX005 (ip), vehicle: saline): 100 % of control
T/C (dose: 100.0 mg/kg/injection, schedule: Q01DX005 (ip), vehicle: saline): 107 % of control
T/C (dose: 200.0 mg/kg/injection, schedule: Q01DX005 (ip), vehicle: saline): 109 % of control

Cc1c2oc3c(C)ccc(C(=O)OCCN4CCCCC4)c3nc-2c(C(=O)OCCN2CCCCC2)c(N)c1=O
T/C (dose: 6.25 mg/kg/injection, schedule: Q01DX009 (ip), vehicle: saline with Tween-80): 100 % of control
T/C (dose: 12.5 mg/kg/injection, schedule: Q01DX009 (ip), vehicle: saline with Tween-80): 99 % of control
T/C [14]: 107 % of control
T/C [11]: 113 % of control

Cc1ccc(S(=O)(=O)N/N=C(\C(=O)O)c2ccccc2)cc1
T/C (dose: 12.5 mg/kg/injection, schedule: Q01DX009 (ip), vehicle: Klucel (hydroxypropylcellulose) (HPC)): 102 % of control
T/C (dose: 25.0 mg/kg/injection, schedule: Q01DX009 (ip), vehicle: Klucel (hydroxypropylcellulose) (HPC)): 97 % of control
T/C [4]: 96 % of control
T/C [5]: 94 % of control
T/C [6]: 93 % of control

CCCCCCC(C)NN (stereo unspecified)
T/C (dose: 100.0 mg/kg/injection, schedule: Q04DX003 (ip), vehicle: saline with Tween-80): 86 % of control
